From PMC9691367, “The PROTAC selectively degrading Bcl-xL represents a novel Hedgehog pathway inhibitor with capacity of combating resistance to Smoothened inhibitors while sparing bone growth” (Theranostics, 2022)
Values joined by “and” are separate entries in the source; they are usually repeats but may differ in a detail not shown here. Identical values can stand only once. Like-named read-outs stand apart in the source and are kept apart here.

How the values were obtained:
[1] = biological target: Bcl-2 (Homo sapiens, UniProt P10415); assay: Competitive fluorescence polarization assay, Bcl-2 / FAM-Bax; assay type: binding; settings: Bcl-2 100 nM, FAM-Bax 5 nM
Chain of Bcl-2 (P10415 whole entry, species assumed): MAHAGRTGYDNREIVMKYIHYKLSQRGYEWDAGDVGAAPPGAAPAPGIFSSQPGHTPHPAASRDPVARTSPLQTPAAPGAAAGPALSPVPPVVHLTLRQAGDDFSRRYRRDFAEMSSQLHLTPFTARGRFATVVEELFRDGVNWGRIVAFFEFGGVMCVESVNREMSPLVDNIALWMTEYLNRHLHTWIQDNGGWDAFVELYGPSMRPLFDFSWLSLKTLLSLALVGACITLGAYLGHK
Description: Competitive fluorescence polarization assays were carried out in black-walled plates in assay buffer (20 mM Na2HPO4 ·12H2O, 20 mM NaH2PO4·12H2O, 1 mM EDTA, 50 mM NaCl, 0.05% PF-68). The use of protein/peptide probe pairs was as follows: Bcl-xL (5 nM) and FAM-Bad (5 nM), Bcl-2 (100 nM) and FAM-Bax (5 nM), Mcl-1 (100 nM) and FAM-Bim (5 nM). Assay buffer, proteins, drugs, and peptides were added to the assay plates sequentially. The assay plates were slightly shaken for 3 min and incubated for 30 min at room temperature. The fluorescence polarization was measured on a Synergy 2 reader (BioTek).

[2] = system: Gli1; assay: Western blot of Gli1 in light II cells; assay type: cell-based; settings: 1 µM
Description: Cells were lysed in cell lysis buffer (50 mM Tris pH 8.0, 150 mM NaCl, 10% glycerol, 1 mM EDTA, 50 mM NaF, and 0.1% NP-40) supplemented with protease and phosphatase inhibitors. Total protein extracts of tissues were generated in radioimmunoprecipitation (RIPA) assay lysis buffer containing complete protease and phosphatase inhibitor cocktail. Protein content was quantified using the Pierce BCA Protein Assay Kit (#23225, Thermo Fisher Scientific). The proteins were separated by SDS-PAGE, electrophoretically transferred to polyvinylidene difluoride (PVDF) blotting membranes (#LC2002, Thermo Fisher Scientific), and subjected to routine immunoblot analysis with primary antibodies as follows: anti-Bcl-2 (#15071), anti-Mcl-1 (#94296), anti-VHL (#68547), anti-CRBN (#71810), and anti-Sufu (#2522) were obtained from Cell Signaling Technology (Danvers, Massachusetts, USA); anti-Bcl-xL (#ab32370), anti-Gli1 (#ab134906), and anti-Smoothened (#ab236465) were obtained from Abcam (Cambridge, CB2 0AX, UK); anti-GAPDH (#60004-1-Ig) and anti-β-tubulin (#10094-1-AP) were purchased from Proteintech Group, Inc. (Rosemont, IL 60018, USA). The results were quantified by densitometry using ImageJ software (NIH).

[3] = Pharmacokinetic study in male ICR mice; assay type: in vivo, mouse; settings: for MRT last: read-out: MRT(0-t); for MRT inf: read-out: MRT(0-∞)
Description: Standard pharmacokinetic (PK) studies were conducted using male ICR Mice. A single 2 mg/kg intravenous (i.v.) injection, 10 mg/kg intraperitoneal (i.p.) injection or 10 mg/kg oral (p.o.) administration of SIAIS361034 was evaluated. Plasma concentrations of SIAIS361034 at each of the 7 time points (0.25 h, 0.5 h, 1 h, 2 h, 4 h, 8 h, and 24 h post dosing) are the average values from 3 animals.

[4] = system: SmoA1 (Smo W539L) medulloblastoma tumor; assay: SmoA1 medulloblastoma allograft in nude mice; assay type: in vivo, mouse
Source text: For in vivo SmoA1 MB allograft studies, SmoA1 spontaneous MB tumors were obtained from ND2:SmoA1 transgenic mice as previously described. Male nude mice (4 to 5 weeks of age) were purchased from Shanghai Lingchang Biotechnology Co. (Shanghai, China). Spontaneous tumors were harvested and subcutaneously allografted into nude mice. When the tumor volumes reached approximately 2000 mm^3, they were harvested and further subcutaneously allografted into nude mice. When the tumor volumes reached about 150 to 200 mm^3, the tumor-bearing mice were randomly assigned into vehicle and treatment groups. Mice were weighed every 3 days. Tumor size was measured once every 3 days using microcaliper. Tumor volume (V) was determined using the following formula: V = (L×W^2) ×0.5, where L is length, and W is width in mm. Tumor tissues were harvested 6 h after the last dosage to examining Gli1 mRNA expression and protein levels. SIAIS361034 for i.p. administration was formulated in 0.5% sodium carboxymethyl cellulose (CMC-Na). All in vivo studies above were approved by and conformed to the policies and regulations of the Animal Care and Use Committee of Fudan University, China.

[5] = system: bone growth of young mice; assay: Bone growth of young mice (body weight, Micro-CT, H&E, IHC); assay type: in vivo, mouse; settings: 6-week-old mice treated P12 to P16
[6] = male ICR mice, 2 mg/kg IV, individual animals (Mouse 1-3), 2 mg/kg
[7] = male ICR mice, 10 mg/kg IP, individual animals (Mouse 1-3), 10 mg/kg
[8] = male ICR mice, 10 mg/kg PO, individual animals (Mouse 1, 3; Mouse 2 NA), 10 mg/kg
[9] = male ICR mice, 10 mg/kg PO, individual animals (Mouse 1-3), 10 mg/kg
[10] = male, ICR, mouse, plasma, ip, 10 mg/kg, male ICR mice, 10 mg/kg IP, individual animals (Mouse 1-3)
[11] = male, ICR, mouse, plasma, ip, 10 mg/kg, male ICR mice, 10 mg/kg IP, mean of 3 animals
[12] = male, ICR, mouse, plasma, iv, 2 mg/kg, male ICR mice, 2 mg/kg IV, individual animals (Mouse 1-3)
[13] = male, ICR, mouse, plasma, iv, 2 mg/kg, male ICR mice, 2 mg/kg IV, mean of 3 animals
[14] = male, ICR, mouse, plasma, po, 10 mg/kg, male ICR mice, 10 mg/kg PO, mean

## CC1(C)CCC(c2ccc(Cl)cc2)=C(CN2CCN(c3ccc(C(=O)NS(=O)(=O)c4ccc(NCCCN5CCN(CCCC#Cc6cccc7c6CN(C6CCC(=O)NC6=O)C7=O)CC5)c(S(=O)(=O)C(F)(F)F)c4)cc3)CC2)C1 (stereo not shown) [SIAIS361034]
[1]
  Ki: 15.1 nM
[2]
  Gli1 protein level: decreased Gli1 protein level
[3]; [6]
  AUC(0-t): 6203 ng·h/mL and 4263 ng·h/mL
  AUC(0-∞): 6222 ng·h/mL and 4305 ng·h/mL
  C0: 34215 ng/mL and 79513 ng/mL and 43287 ng/mL
  Cl: 5.35 mL/min/kg and 7.75 mL/min/kg
  Cmax: 17900 ng/mL and 13200 ng/mL
  MRT(0-t): 0.30 h and 0.31 h
  MRT(0-∞): 0.40 h and 0.42 h
  T1/2: 1.79 h and 6.38 h and 2.29 h
  Vss: 0.13 L/kg and 0.193 L/kg
  Vz: 2.957 L/kg and 1.535 L/kg
[3]; [7]
  AUC(0-t): 20871 ng·h/mL and 15558 ng·h/mL
  AUC(0-∞): 22061 ng·h/mL and 16141 ng·h/mL
  Cmax: 9700 ng/mL and 4920 ng/mL
  F: 71.4% and 96.4% and 70.5%
  MRT(0-t): 5.16 h and 4.24 h
  MRT(0-∞): 6.68 h and 5.22 h
  T1/2: 5.23 h and 5.94 h
[3]; male ICR mice, 10 mg/kg IP, individual animals (Mouse 1-3; 0.50 twice), 10 mg/kg
  Tmax: 0.50 h
[3]; [8]
  AUC(0-∞): 305 ng·h/mL and 111 ng·h/mL
  MRT(0-∞): 10.30 h and 2.82 h
  T1/2: 8.98 h and 2.39 h
[3]; male ICR mice, 10 mg/kg PO, individual animals (Mouse 1, 3; Mouse 2 and mean NA), 10 mg/kg
  F: 1.33% and 0.484%
[3]; [9]
  AUC(0-t): 265 ng·h/mL and 213 ng·h/mL and 101 ng·h/mL
  Cmax: 54.9 ng/mL and 49.1 ng/mL
  MRT(0-t): 6.29 h and 2.88 h and 2.01 h
[3]; male ICR mice, 10 mg/kg PO, individual animals (Mouse 1-3; 1.00 twice), 10 mg/kg
  Tmax: 2.00 h
[3]; [10]
  AUC(0-inf): 16300 ng·h/mL
  half-life: 6.44 h
  MRT last: 3.84 h
  MRT inf: 5.25 h
[3]; male, ICR, mouse, plasma, ip, 10 mg/kg, male ICR mice, 10 mg/kg IP, individual animals (Mouse 1-3), read-out: AUC(0-t)
  AUC(0-t): 15500 ng·h/mL
[3]; male, ICR, mouse, plasma, ip, 10 mg/kg, male ICR mice, 10 mg/kg IP, individual animals (Mouse 1-3), read-out: Cmax
  Cmax: 7630 ng/mL
[3]; male, ICR, mouse, plasma, ip, 10 mg/kg, male ICR mice, 10 mg/kg IP, individual animals (Mouse 1-3; 0.50 twice), read-out: Tmax
  Tmax: 1 h
[3]; [11]
  AUC(0-inf): 18200 ng·h/mL
  bioavailability: 79.4%
  half-life: 5.87 h
  MRT last: 4.41 h
  MRT inf: 5.72 h
[3]; male, ICR, mouse, plasma, ip, 10 mg/kg, male ICR mice, 10 mg/kg IP, mean of 3 animals, read-out: AUC(0-t)
  AUC(0-t): 17300 ng·h/mL
[3]; male, ICR, mouse, plasma, ip, 10 mg/kg, male ICR mice, 10 mg/kg IP, mean of 3 animals, read-out: Cmax
  Cmax: 7420 ng/mL
[3]; male, ICR, mouse, plasma, ip, 10 mg/kg, male ICR mice, 10 mg/kg IP, mean of 3 animals, read-out: Tmax
  Tmax: 0.67 h
[3]; [12]
  AUC(0-inf): 3200 ng·h/mL
  clearance: 10.4 mL/min/kg
  MRT last: 0.22 h
  MRT inf: 0.26 h
[3]; male, ICR, mouse, plasma, iv, 2 mg/kg, male ICR mice, 2 mg/kg IV, individual animals (Mouse 1-3), read-out: AUC(0-t)
  AUC(0-t): 3190 ng·h/mL
[3]; male, ICR, mouse, plasma, iv, 2 mg/kg, male ICR mice, 2 mg/kg IV, individual animals (Mouse 1-3), read-out: Cmax
  Cmax: 10300 ng/mL
[3]; male, ICR, mouse, plasma, iv, 2 mg/kg, male ICR mice, 2 mg/kg IV, individual animals (Mouse 1-3), read-out: Vss
  Vd: 0.163 L/kg
[3]; male, ICR, mouse, plasma, iv, 2 mg/kg, male ICR mice, 2 mg/kg IV, individual animals (Mouse 1-3), read-out: Vz
  Vd: 1.61 L/kg
[3]; male, ICR, mouse, plasma, iv, 2 mg/kg, male ICR mice, 2 mg/kg IV, individual animals (Mouse 1-3, same value), read-out: Tmax
  Tmax: 0.083 h
[3]; [13]
  AUC(0-inf): 4580 ng·h/mL
  clearance: 7.83 mL/min/kg
  half-life: 3.49 h
  MRT last: 0.28 h
  MRT inf: 0.36 h
[3]; male, ICR, mouse, plasma, iv, 2 mg/kg, male ICR mice, 2 mg/kg IV, mean of 3 animals, read-out: AUC(0-t)
  AUC(0-t): 4550 ng·h/mL
[3]; male, ICR, mouse, plasma, iv, 2 mg/kg, male ICR mice, 2 mg/kg IV, mean of 3 animals, read-out: C0
  C0: 52300 ng/mL
[3]; male, ICR, mouse, plasma, iv, 2 mg/kg, male ICR mice, 2 mg/kg IV, mean of 3 animals, read-out: Cmax
  Cmax: 13800 ng/mL
[3]; male, ICR, mouse, plasma, iv, 2 mg/kg, male ICR mice, 2 mg/kg IV, mean of 3 animals, read-out: Tmax
  Tmax: 0.083 h
[3]; male, ICR, mouse, plasma, iv, 2 mg/kg, male ICR mice, 2 mg/kg IV, mean of 3 animals, read-out: Vss
  Vd: 0.162 L/kg
[3]; male, ICR, mouse, plasma, iv, 2 mg/kg, male ICR mice, 2 mg/kg IV, mean of 3 animals, read-out: Vz
  Vd: 2.03 L/kg
[3]; male, ICR, mouse, plasma, po, 10 mg/kg, male ICR mice, 10 mg/kg PO, individual animals (Mouse 1-3), read-out: Cmax
  Cmax: 50.9 ng/mL
[3]; male, ICR, mouse, plasma, po, 10 mg/kg, male ICR mice, 10 mg/kg PO, individual animals (Mouse 1-3; 1.00 twice), read-out: Tmax
  Tmax: 1 h
[3]; [14]
  AUC(0-inf): 208 ng·h/mL
  half-life: 5.68 h
  MRT inf: 6.56 h
[3]; male, ICR, mouse, plasma, po, 10 mg/kg, male ICR mice, 10 mg/kg PO, mean of 3 animals, read-out: AUC(0-t)
  AUC(0-t): 193 ng·h/mL
[3]; male, ICR, mouse, plasma, po, 10 mg/kg, male ICR mice, 10 mg/kg PO, mean of 3 animals, read-out: Cmax
  Cmax: 51.6 ng/mL
[3]; male, ICR, mouse, plasma, po, 10 mg/kg, male ICR mice, 10 mg/kg PO, mean of 3 animals
  MRT last: 3.73 h
[3]; male, ICR, mouse, plasma, po, 10 mg/kg, male ICR mice, 10 mg/kg PO, mean of 3 animals, read-out: Tmax
  Tmax: 1.33 h
[3]; mice, 10 mg/kg p.o.
  pharmacokinetic property, oral: poor pharmacokinetic property
[3]; mice, single 10 mg/kg i.p. or 2 mg/kg i.v., over 24 h
  plasma exposure: good plasma exposure
[4]; nude mice, SIAIS361034 50 mg/kg, day 15 (termination of the experiment)
  tumor inhibition ratio / mean tumor growth inhibition (TGI) ratio: 93.56%
[4]; nude mice, SIAIS361034 50 mg/kg, GDC-0449 50 mg/kg p.o.
  growth of SmoA1 tumors: remarkably suppressed
[4]; tumors harvested 6 h after the last dosage, RT-qPCR
  expression of Gli1 mRNA in tumor tissues: significantly inhibited
[4]; western blot at the end of the experiment
  Bcl-xL and Gli1 protein in harvested tumors: inducing Bcl-xL degradation and repressing Gli1 expression
[5]
  platelets and other indispensable blood cells at the end of the experiment: no side effects
